Assay results reported in PubChem BioAssay AID2060888 (Molecular Pharmacology Branch, DTP, NCI, 2025).

Test system: 695427-040-R-J1-PDC complex spheroid viability
Assay: Anticancer human tumor 695427-040-R-J1-PDC patient-derived colon adenocarcinoma cell line growth inhibition [RAS]
Conditions: for IC50: curve of first compound; for viability, T/C: stronger effect = lower value
How it was run: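 Agents were tested in combination matrices in half-log decrements from a top concentration at or near clinical Cmax (10 microM if undetermined). Targets were multi-cell spheroids of tumour lines plus HUVEC and MSC stromal cells.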

[1] = second compound 0.00316 µM, first compound 0.0316 µM
[2] = second compound 0.00316 µM, first compound 0.1 µM
[3] = second compound 0.00316 µM, first compound 0.316 µM
[4] = second compound 0.00316 µM, first compound 1 µM
[5] = second compound 0.01 µM, first compound 0.0316 µM
[6] = second compound 0.01 µM, first compound 0.1 µM
[7] = second compound 0.01 µM, first compound 0.316 µM
[8] = second compound 0.01 µM, first compound 1 µM
[9] = second compound 0.0316 µM, first compound 0.0316 µM
[10] = second compound 0.0316 µM, first compound 0.1 µM
[11] = second compound 0.0316 µM, first compound 0.316 µM
[12] = second compound 0.0316 µM, first compound 1 µM
[13] = second compound 0.1 µM, first compound 0.0316 µM
[14] = second compound 0.1 µM, first compound 0.1 µM
[15] = second compound 0.1 µM, first compound 0.316 µM
[16] = second compound 0.1 µM, first compound 1 µM
[17] = second compound 0.316 µM, first compound 0.0316 µM
[18] = second compound 0.316 µM, first compound 0.1 µM
[19] = second compound 0.316 µM, first compound 0.316 µM
[20] = second compound 0.316 µM, first compound 1 µM
[21] = second compound 1 µM, first compound 0.0316 µM
[22] = second compound 1 µM, first compound 0.1 µM
[23] = second compound 1 µM, first compound 0.316 µM
[24] = second compound 1 µM, first compound 1 µM
[25] = second compound 0.0316 µM, first compound 3.16 µM
[26] = second compound 0.0316 µM, first compound 10 µM
[27] = second compound 0.1 µM, first compound 3.16 µM
[28] = second compound 0.1 µM, first compound 10 µM
[29] = second compound 0.316 µM, first compound 3.16 µM
[30] = second compound 0.316 µM, first compound 10 µM
[31] = second compound 1 µM, first compound 3.16 µM
[32] = second compound 1 µM, first compound 10 µM
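Note: viability read after seven days of drug exposure.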
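Throughout, for viability, T/C: 100% = DMSO vehicle control viability.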

`C=CC(=O)Nc1cc(Nc2nccc(-c3cn(C)c4ccccc34)n2)c(OC)cc1N(C)CCN(C)C` + C=CC(=O)N1CCN(c2nc(OCC3CCCN3C)nc3c(F)c(-c4nc(N)cc(C)c4C(F)(F)F)c(Cl)cc23)C(C)C1 was tested, and the IC50 (second compound 0.00316 µM) was 406 nM, the IC50 (second compound 0.01 µM) was 500 nM and the IC50 (second compound 0.0316 µM) was 403 nM. The IC50 (second compound 0.1 µM) was 429 nM, the IC50 (second compound 0.316 µM) was 457 nM and the IC50 (second compound 1 µM) was 429 nM. For the same compound, the viability, T/C (second compound 0.00316 µM, first compound 0.00316 µM) was 96.5%, the viability, T/C (second compound 0.00316 µM, first compound 0.01 µM) was 94.1% and the viability, T/C [1] was 86.2%. For the same compound, the viability, T/C [2] was 76.5%, the viability, T/C [3] was 54.6% and the viability, T/C [4] was 31.4%. For the same compound, the viability, T/C (second compound 0.01 µM, first compound 0.00316 µM) was 102%, the viability, T/C (second compound 0.01 µM, first compound 0.01 µM) was 94.5% and the viability, T/C [5] was 83.7%. It also gave a viability, T/C [6] of 72.2%, a viability, T/C [7] of 57.5% and a viability, T/C [8] of 39.2%. The viability, T/C (second compound 0.0316 µM, first compound 0.00316 µM) was 112%, the viability, T/C (second compound 0.0316 µM, first compound 0.01 µM) was 99.1% and the viability, T/C [9] was 83.8%. For the same compound, the viability, T/C [10] was 71%, the viability, T/C [11] was 58.2% and the viability, T/C [12] was 32.7%. For the same compound, the viability, T/C (second compound 0.1 µM, first compound 0.00316 µM) was 94.7%, the viability, T/C (second compound 0.1 µM, first compound 0.01 µM) was 100% and the viability, T/C [13] was 88%. For the same compound, the viability, T/C [14] was 76.4%, the viability, T/C [15] was 56.7% and the viability, T/C [16] was 33%. For the same compound, the viability, T/C (second compound 0.316 µM, first compound 0.00316 µM) was 105%, the viability, T/C (second compound 0.316 µM, first compound 0.01 µM) was 94.7% and the viability, T/C [17] was 84.6%. It also gave a viability, T/C [18] of 80.3%, a viability, T/C [19] of 60.1% and a viability, T/C [20] of 30.2%. The viability, T/C (second compound 1 µM, first compound 0.00316 µM) was 90.3%, the viability, T/C (second compound 1 µM, first compound 0.01 µM) was 95.5% and the viability, T/C [21] was 88.5%. It also gave a viability, T/C [22] of 80.7%, a viability, T/C [23] of 58.1% and a viability, T/C [24] of 27.6%.

Work on `NC1c2ccccc2OC12CCN(c1cnc3c(N4CCCc5ncccc54)n[nH]c3n1)CC2` (stereo unspecified) + C=CC(=O)N1CCN(c2nc(OCC3CCCN3C)nc3c(F)c(-c4nc(N)cc(C)c4C(F)(F)F)c(Cl)cc23)C(C)C1 yielded an IC50 (second compound 0.00316 µM) of 4310 nM, an IC50 (second compound 0.01 µM) of 3210 nM and an IC50 (second compound 0.0316 µM) of 2880 nM. It also gave an IC50 (second compound 0.1 µM) of 2160 nM, an IC50 (second compound 0.316 µM) of 3370 nM and an IC50 (second compound 1 µM) of 1060 nM. The viability, T/C [1] was 72.3%, the viability, T/C [2] was 68.1% and the viability, T/C [3] was 63.8%. It also gave a viability, T/C [4] of 57.2%, a viability, T/C (second compound 0.00316 µM, first compound 3.16 µM) of 52.4% and a viability, T/C (second compound 0.00316 µM, first compound 10 µM) of 44.9%. For the same compound, the viability, T/C [5] was 78.6%, the viability, T/C [6] was 73.3% and the viability, T/C [7] was 63.3%. For the same compound, the viability, T/C [8] was 59%, the viability, T/C (second compound 0.01 µM, first compound 3.16 µM) was 51.6% and the viability, T/C (second compound 0.01 µM, first compound 10 µM) was 41%. For the same compound, the viability, T/C [9] was 80.1%, the viability, T/C [10] was 73.6% and the viability, T/C [11] was 71.4%. It also gave a viability, T/C [12] of 56.8%, a viability, T/C [25] of 50.4% and a viability, T/C [26] of 43.1%. It also gave a viability, T/C [13] of 78.2%, a viability, T/C [14] of 74.8% and a viability, T/C [15] of 60.1%. It also gave a viability, T/C [16] of 56.9%, a viability, T/C [27] of 46.6% and a viability, T/C [28] of 41.9%. It also gave a viability, T/C [17] of 74.6%, a viability, T/C [18] of 68.4% and a viability, T/C [19] of 64.8%. For the same compound, the viability, T/C [20] was 60.2%, the viability, T/C [29] was 49.6% and the viability, T/C [30] was 41.2%. For the same compound, the viability, T/C [21] was 70.6%, the viability, T/C [22] was 62.2% and the viability, T/C [23] was 53.6%. The viability, T/C [24] was 52%, the viability, T/C [31] was 47.2% and the viability, T/C [32] was 36%.

Work on `NC1c2ccccc2OC12CCN(c1cnc3c(N4CCCc5ncccc54)n[nH]c3n1)CC2` (stereo unspecified) + C#Cc1c(F)ccc2cc(O)cc(-c3ncc4c(N5CC6CCC(C5)N6)nc(OCC56CCCN5CC(F)C6)nc4c3F)c12 yielded an IC50 (second compound 0.0316 µM) of 1180 nM, an IC50 (second compound 0.1 µM) of 583 nM and an IC50 (second compound 0.316 µM) of 141 nM. The IC50 (second compound 1 µM) was 50.8 nM, the IC50 (second compound 3.16 µM) was less than 31.6 nM and the IC50 (second compound 10 µM) was less than 31.6 nM. For the same compound, the viability, T/C [9] was 69.6%, the viability, T/C [10] was 65.6% and the viability, T/C [11] was 57.4%. The viability, T/C [12] was 50%, the viability, T/C [25] was 45.2% and the viability, T/C [26] was 33.6%. The viability, T/C [13] was 69%, the viability, T/C [14] was 61.8% and the viability, T/C [15] was 55.9%. It also gave a viability, T/C [16] of 45.1%, a viability, T/C [27] of 34.9% and a viability, T/C [28] of 23.5%. For the same compound, the viability, T/C [17] was 66.8%, the viability, T/C [18] was 52.1% and the viability, T/C [19] was 40.8%. It also gave a viability, T/C [20] of 31.9%, a viability, T/C [29] of 25.5% and a viability, T/C [30] of 12.8%. It also gave a viability, T/C [21] of 55.8%, a viability, T/C [22] of 40.9% and a viability, T/C [23] of 33.6%. It also gave a viability, T/C [24] of 25.7%, a viability, T/C [31] of 15.8% and a viability, T/C [32] of 8.19%. It also gave a viability, T/C (second compound 3.16 µM, first compound 0.0316 µM) of 39.6%, a viability, T/C (second compound 3.16 µM, first compound 0.1 µM) of 27.4% and a viability, T/C (second compound 3.16 µM, first compound 0.316 µM) of 23.4%. The viability, T/C (second compound 3.16 µM, first compound 1 µM) was 15.9%, the viability, T/C (second compound 3.16 µM, first compound 3.16 µM) was 12.2% and the viability, T/C (second compound 3.16 µM, first compound 10 µM) was 5.36%. For the same compound, the viability, T/C (second compound 10 µM, first compound 0.0316 µM) was 23.9%, the viability, T/C (second compound 10 µM, first compound 0.1 µM) was 18.9% and the viability, T/C (second compound 10 µM, first compound 0.316 µM) was 10.8%. The viability, T/C (second compound 10 µM, first compound 1 µM) was 7.6%, the viability, T/C (second compound 10 µM, first compound 3.16 µM) was 4.71% and the viability, T/C (second compound 10 µM, first compound 10 µM) was 1.43%.
